The source of these data is US20090275574A1, “NOVEL COMPOUNDS-300” (ASTRAZENECA AB, priority 2008, published 2009).

pEC50: −log10 of the molar value. Bounds are passed on as bounds.

The target of one test is T1, cloned human M4 receptor (Homo sapiens, UniProt P08173).
T1 construct: purchased Perkin-Elmer RBHM4M; host or cells: Chinese hamster ovary cells (CHO), membranes
T1 sequence (P08173 1-479): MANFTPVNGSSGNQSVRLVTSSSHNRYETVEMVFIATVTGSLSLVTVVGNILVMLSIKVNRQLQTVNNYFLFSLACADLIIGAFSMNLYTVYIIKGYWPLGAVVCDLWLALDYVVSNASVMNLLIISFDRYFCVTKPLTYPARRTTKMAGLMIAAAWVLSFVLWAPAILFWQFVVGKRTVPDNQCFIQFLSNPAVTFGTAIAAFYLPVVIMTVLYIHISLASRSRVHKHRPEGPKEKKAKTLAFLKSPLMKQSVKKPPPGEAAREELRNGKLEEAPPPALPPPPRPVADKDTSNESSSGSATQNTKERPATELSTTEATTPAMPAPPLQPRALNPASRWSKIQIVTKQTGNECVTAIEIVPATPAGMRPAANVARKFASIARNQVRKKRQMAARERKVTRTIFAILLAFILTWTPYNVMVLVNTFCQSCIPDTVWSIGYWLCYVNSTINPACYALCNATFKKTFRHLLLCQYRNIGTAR
Description: hM4 receptor GTPγS binding. The class given is biochemical. Conditions: CHO membranes expressing hM4, [35S]GTPγS binding. The protocol:
hM4 Receptor GTPγS Binding Membranes produced from Chinese hamster ovary cells (CHO) expressing the cloned human M4 receptor (human Muscarinic receptor subtype 4, gene bank access NM_000741), are obtained from Perkin-Elmer (RBHM4M). The membranes are thawed at 37° C., passed 3 times through a 23-gauge blunt-end needle, diluted in the GTPγS binding buffer (50 mM Hepes, 20 mM NaOH, 100 mM NaCl, 1 mM EDTA, 5 mM MgCl2, pH 7.4, 100 μM DTT). The EC50, IC50 and Emax of the compounds of the invention are evaluated from 10-point dose-response curves (three fold concentration range) done in 60 μl in 384-well non-specific binding surface plate (Corning). Ten microliters from the dose-response curves plate (5× concentration) are transferred to another 384 well plate containing 25 μl of the following: 10 μg of hM4 membranes, 500 μg of Flashblue beads (Perkin-Elmer) and GDP 40 μM. An additional 15 μl containing 3.3× (60,000 dpm) of GTPγ^35S (0.4 nM final) are added to the wells resulting in a total well volume of 50 μl. Basal and maximal stimulated [^35S]GTPγS binding are determined in absence and presence of 30 μM final of acetylcholine agonist. The membranes/beads mix are pre-incubated for 15 minutes at room temperature with 40 μM GDP prior to distribution in plates (20 μM final). The reversal of acetylcholine-induced stimulation (10 μM final) of [^35S]GTPγS binding is used to assay the antagonist properties (IC50) of the compounds. The plates are incubated for 60 minutes at room temperature then centrifuged at 400 rpm for 5 minutes. The radioactivity (cpm) is counted in a Trilux (Perkin-Elmer). Values of EC50, IC50 and Emax are obtained using sigmoidal fits of a non-linear curve-fitting program (XLfit version 4.2.2 Excel add-in version 4.2.2 build 18 math 1Q version 2.1.2 build 18) of percent stimulated [^35S]GTPγS binding vs. log(molar ligand). All pEC50 and pIC50 values are reported as arithmetic means±standard error of mean of ‘n’ independent experiments.
(GTPγS is a poorly hydrolysed GTP analogue; its binding reports G protein activation.)

The next test has as its target T2, cloned human M2 receptor (Homo sapiens, UniProt P08172).
T2 construct: purchased Perkin-Elmer RBHM2M; host or cells: Chinese hamster ovary cells (CHO), membranes
T2 sequence (P08172 1-466): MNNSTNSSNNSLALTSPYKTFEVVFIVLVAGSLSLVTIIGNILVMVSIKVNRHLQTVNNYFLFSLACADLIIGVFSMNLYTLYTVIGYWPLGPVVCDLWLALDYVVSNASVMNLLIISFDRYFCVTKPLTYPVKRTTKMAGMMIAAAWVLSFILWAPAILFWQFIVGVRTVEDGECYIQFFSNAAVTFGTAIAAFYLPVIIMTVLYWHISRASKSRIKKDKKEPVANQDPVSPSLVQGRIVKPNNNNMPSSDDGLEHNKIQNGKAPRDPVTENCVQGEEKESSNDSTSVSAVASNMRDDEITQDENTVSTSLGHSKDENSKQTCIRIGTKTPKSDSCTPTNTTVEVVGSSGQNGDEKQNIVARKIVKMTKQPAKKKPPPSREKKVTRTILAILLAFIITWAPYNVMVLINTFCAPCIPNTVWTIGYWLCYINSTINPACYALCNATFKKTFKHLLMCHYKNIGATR
Description: hM2 receptor GTPγS binding. The class given is biochemical. The following applies: CHO membranes expressing hM2, [35S]GTPγS binding.

For orientation: pEC50 means the EC50 on a negative log10 scale, so that one unit is a factor of ten. A lower pEC50 goes with a high EC50. As to `O=C1CO[C@H]2CCCC[C@@H]2N1C1CCN(C2CCC(COCCF)CC2)CC1` (single isomer, unassigned) [Example 24], the pEC50 is less than 4.05 at cloned human M4 receptor and less than 5.24 on cloned human M2 receptor.
The corresponding values for `CC(C)OCC1CCC(N2CCC(N3C(=O)CO[C@H]4CCC(F)(F)C[C@@H]43)CC2)CC1` (single isomer, unassigned) [Example 38] are less than 4.05 and less than 5.00.
The corresponding values for `O=C1CO[C@H]2CCCC[C@@H]2N1C1CCN(C2CCC(COCC(F)F)CC2)CC1` (single isomer, unassigned) [Example 27] are less than 4.05 and 6.06.
